Experimental findings from patent US20150299233A1, “COMPOSITIONS AND METHODS COMPRISING RHENIUM FOR THE TREATMENT OF CANCERS” (Massachusetts Institute of Technology, priority 2014, published 2015) are described below.

Where two headings read alike, the source gives them in different places.

The test system of data set [1] is A549 cells. Nature of the data set: MTT cytotoxicity assay, A549 cells. The class given is cell-based, human. (Tetrazolium assays rely on reduction of a dye to a coloured formazan, in cell work by metabolically active cells.)
Protocol: (§2) In vitro toxicity of the rhenium (v) oxo complexes, 1 and 2 towards a panel of human cell lines was determined using the colorimetic MTT [[3-(4,5-dimethylithiazol-2-yl)-2,5-diphenyltetrazolium bromide] assay.
(§3) The in vitro effect of rhenium(V) oxo complexes 1 and 2 toward a panel of human cell lines was determined by the colorimetric MTT [3-(4,5-dimethylthiazol-2-yl)-2,5-diphenyltetrazolium bromide] assay. […] The IC50 values, or concentration required to induce 50% cell death, were derived from dose—response curves and are summarized in Table 1.
(§4) Cells (2×10^3 cells/well) were seeded in a 96-well plate. […] 1 and 2 were prepared as 10 mM solutions in DMSO and diluted using media. The final concentration of DMSO in each well was 0.5%, and this amount was also present in the untreated control. After 72 h, the medium was removed, 200 μL of a 0.4 mg/mL solution of MTT in DMEM, RPMI, or McCoy's 5A was added, and the plate was incubated for an additional 1-2 h. The DMEM/MTT, RPMI/MTT, or McCoy's 5A/MTT mixture was aspirated, and 200 μL of DMSO was added to dissolve the resulting purple formazan crystals. The absorbance of the solution wells was read at 550 nm. Absorbance values were normalized to DMSO-containing control wells and plotted as the concentration of test compound versus % cell viability. IC50 values were interpolated from the resulting dose-dependent curves. The reported IC50 values are the average from at least three independent experiments, each of which consisted of six replicates per concentration level.
The subject of data set [2] is A549 cells. Nature of the data set: Immunoblotting analysis of treated A549 cells. Type of data set: cell-based, human. To be noted: for cleaved caspases 7 and 9: 50-500 nM for 72 h; for FADD and cleaved caspase 8 expression: increasing concentration; for overall expression level of RIP1 and RIP3: increasing dosages. As to the method: In order to determine the cell-killing mechanism of 1 and 2, cytotoxicity studies in the presence of apoptosis and necrosis inhibitors were conducted. […] The possibility that 1 and 2 induce necroptosis was then investigated. Necroptosis is a well-regulated mode of cell death that is different from unregulated necrosis and apoptosis. Unlike unregulated necrosis, which can be induced by H2O2 or heat, necroptosis generally involved the interaction of protein kinases, RIP1 and RIP3, to initiate cell disintegration. This process can be blocked by necrostatin-1, a potent RIP1 kinase inhibitor. To determine whether 1 and 2 induced necroptosis and/or uncontrolled necrosis, cytotoxicity studies were conducted in the presence of necrostatin-1 (60 μM) and IM-54 (10 μM), an inhibitor of H2O2-induced necrosis. […] Therefore, 1- and 2-induced cell death relies on RIP1-RIP3 complex formation and not on the expression levels of the individual protein kinases. RIP1 can also form a cytosolic complex with Fas-associated death domain (FADD) and caspase 8, known as a ripoptosome, to initiate apoptosis (through caspase 8 cleavage).
(§1) (PARP-1). PARP-1 is a nuclear enzyme that is involved in DNA repair and transcriptional regulation. DNA damage can trigger PARP-1 activity, resulting in ATP and NAD depletion and bioenergetics- mediated cell death. To determine whether PARP-1 activity is a factor in 1- and 2-mediated cell death, cytotoxicity assays were conducted with wild-type mouse embryonic fibroblast cells (MEFs PARP-1+/+) and the corresponding PARP-1-null cells (MEFs PARP-1−/−). […] Recently, p53 has also been reported to play a role in necroptosis. p53 induces cathepsin Q, a lysosomal protease that cooperates with ROS to execute necrosis. To investigate whether p53 might play a role in 1- and 2-mediated necroptosis, cytotoxicity studies were conducted with HCT116 p53^+/+ nd HCT116 p53^−/− cells.
Immunoblotting Analysis. A549 cells (1.5×10^6 cells/well) grown in six-well plates were incubated with 1 and 2 (concentrations, sub-μM) for 72 h at 37° C. Cells were washed with PBS, scraped into SDS-PAGE loading buffer (64 mM Tris-HCl (pH 6.8)/9.6% glycerol/2% SDS/5% /1-mercaptoethanol/0.01% Bromophenol Blue), and incubated at 95° C. for 10 min. Whole cell lysates were resolved by 4-20% sodium dodecyl sulfate polyacylamide gel electrophoresis (SDS-PAGE; 200 V for 25 min), followed by electro-transfer to polyvinylidene difluoride membrane (350 mA for 1 h). Membranes were blocked in 5% (w/v) non-fat milk in PBST (PBS/0.1% Tween 20) and incubated with the appropriate primary antibodies (Cell Signalling Technology and Santa Cruz). After incubation with horseradish peroxidase-conjugated secondary antibodies (Cell Signalling Technology), immuno complexes were detected with the ECL detection reagent (BioRad) and analyzed using an Alpha Innotech Chemilmager 5500 instrument fitted with a chemiluminescence filter.
Background: A western blot detects proteins with antibodies after separation by electrophoresis.

The test system of the next data set is MRC-5. The data set is described as follows: MTT cytotoxicity assay, MRC-5 normal lung fibroblasts. Type of data set: cell-based, human. To be noted: for selectivity over normal fibroblast cells (IC50 higher in normal fibroblasts than in cancer cells): cancer cells versus normal fibroblast cells.
For data set [3], the system named is A549 cells. Nature of the data set: Cytotoxicity in the presence of cell death inhibitors, A549 cells. To be noted: for effect of co-treatment with IM-54 on toxicity: IM-54 10 μM, FIG. 1B; for effect of co-incubation with necrostatin-1 on toxicity, A549: necrostatin-1 60 μM, t test p<0.05, FIG. 1B. The class given is cell-based, human.
Protocol: In order to determine the cell-killing mechanism of 1 and 2, cytotoxicity studies in the presence of apoptosis and necrosis inhibitors were conducted. […] The possibility that 1 and 2 induce necroptosis was then investigated. […] To determine whether 1 and 2 induced necroptosis and/or uncontrolled necrosis, cytotoxicity studies were conducted in the presence of necrostatin-1 (60 μM) and IM-54 (10 μM), an inhibitor of H2O2-induced necrosis.
Cytotoxicity MTT Assay. […] Cells (2×10^3 cells/well) were seeded in a 96-well plate. […] 1 and 2 were prepared as 10 mM solutions in DMSO and diluted using media. The final concentration of DMSO in each well was 0.5%, and this amount was also present in the untreated control. After 72 h, the medium was removed, 200 μL of a 0.4 mg/mL solution of MTT in DMEM, RPMI, or McCoy's 5A was added, and the plate was incubated for an additional 1-2 h. The DMEM/MTT, RPMI/MTT, or McCoy's 5A/MTT mixture was aspirated, and 200 μL of DMSO was added to dissolve the resulting purple formazan crystals. The absorbance of the solution wells was read at 550 nm. Absorbance values were normalized to DMSO-containing control wells and plotted as the concentration of test compound versus % cell viability. IC50 values were interpolated from the resulting dose-dependent curves. The reported IC50 values are the average from at least three independent experiments, each of which consisted of six replicates per concentration level.
For specific cell death inhibitor assays, inhibitors of necroptosis (necrostatin-1, 60 μM), H2O2-induced necrosis (IM-54, 10 μM), and apoptosis (v-VAD-FMK, 5 μM) were added to cells and incubated for 1 h prior to treatment with the test compounds.
Data set [4] deals with DU 145 (prostate carcinoma). The data set is described as follows: MTT cytotoxicity assay, DU 145 cells. Type of data set: cell-based, human. To be noted: Table 2; cisplatin-resistant cell line; 72 h exposure; read-out: IC50 DU 14S prostate carcinoma.
A further data set deals with U2OS. Nature of the data set: MTT cytotoxicity assay, U2OS cells. The class given is cell-based, human.
Data set [5] deals with HeLa cervical adenocarcinoma cells. The data set is described as follows: MTT cytotoxicity assay, HeLa cells. Type of data set: cell-based, human.
A short description of data set [6]: Lipophilicity, partition between octanol and water. Type of data set: physicochemical. To be noted: experimentally determined.
Data set [7] relates to HT-29 (colorectal adenocarcinoma). Nature of the data set: MTT cytotoxicity assay, HT-29 cells. Type of data set: cell-based, human. To be noted: for IC50: Table 2, cisplatin-resistant cell line, 72 h exposure; for IC50 lower in HT-29 cells than IC50 of cisplatin: ratio to cisplatin.
Protocol: Cytotoxicity MTT Assay. […] Cells (2×10^3 cells/well) were seeded in a 96-well plate. […] The final concentration of DMSO in each well was 0.5%, and this amount was also present in the untreated control. After 72 h, the medium was removed, 200 μL of a 0.4 mg/mL solution of MTT in DMEM, RPMI, or McCoy's 5A was added, and the plate was incubated for an additional 1-2 h. The DMEM/MTT, RPMI/MTT, or McCoy's 5A/MTT mixture was aspirated, and 200 μL of DMSO was added to dissolve the resulting purple formazan crystals. The absorbance of the solution wells was read at 550 nm. Absorbance values were normalized to DMSO-containing control wells and plotted as the concentration of test compound versus % cell viability. IC50 values were interpolated from the resulting dose-dependent curves. The reported IC50 values are the average from at least three independent experiments, each of which consisted of six replicates per concentration level.
Data set [8] has as its system MEFs PARP-1+/+ and MEFs PARP-1−/− cells. Nature of the data set: Cytotoxicity in MEFs PARP-1+/+ versus PARP-1-/- cells. Type of data set: cell-based, mouse. To be noted: 72 h, FIG. 3A. As to the method:
as §1
Cell Cycle Analysis. To gain a more complete understanding of the cellular response evoked, DNA-flow cytometric studies were conducted to determine the effect of 1 and 2 on the cell cycle. A549 cells were treated with 1 or 2 (2 μM), and the cell cycle was determined over the course of 72 h. […] Upon further incubation (72 h), large populations of cell debris were detected (32%), indicative of cell death. […]
Cytotoxicity MTT Assay. […] The absorbance of the solution wells was read at 550 nm. Absorbance values were normalized to DMSO-containing control wells and plotted as the concentration of test compound versus % cell viability. […]

In data set [9] the test system is MDA-MB-231 (breast adenocarcinoma). Nature of the data set: MTT cytotoxicity assay, MDA-MB-231 cells. To be noted: Table 2; cisplatin-resistant cell line; 72 h exposure; read-out: IC50 MDA-M8-231 breast adenocarcinoma. Type of data set: cell-based, human.
Another data set concerns NTERA-2. The data set is described as follows: MTT cytotoxicity assay, NTERA-2 cells. Type of data set: cell-based, human. To be noted: Table 1; 72 h exposure; ± standard deviation; read-out: IC50 NTERA-2 testis carcinoma.
Where [10] appears, read: Table 1, 72 h exposure, ± standard deviation, read-out: IC50 A549 lung carcinoma.
Setting [11] is: Table A, average of three independent determinations, read-out: IC50 A549 (lung).
Setting [12] is: Table 1, 72 h exposure, ± standard deviation, read-out: IC50 MRC-5 lung fibroblast.
The mark [13] stands for this setting: Table A, average of three independent determinations, read-out: IC50 MRC5 (lung normal).
Where [14] appears, read: Table 1, 72 h exposure, ± standard deviation, read-out: IC50 U2OS bone osteosarcoma.
Setting [15] is: Table A, average of three independent determinations, read-out: IC50 U2OS (bone).
Setting [16] is: Table 1, 72 h exposure, ± standard deviation, read-out: IC50 HeLa cervical adenocarcinoma.
Where [17] appears, read: Table A, average of three independent determinations, read-out: IC50 HeLa (cervical).

Protocol for MRC-5: as §2, §3, §4

As a reminder, the IC50 is the concentration that inhibits the measured activity by half. Broadly, the log P is the decadic logarithm of the partition coefficient of the neutral form, usually between octanol and water. Regarding `C[O][Re](=[O])([Cl])[Cl].c1ccc(-c2ccnc3c2ccc2c(-c4ccccc4)ccnc23)cc1` [Compound 1, [ReO(OMe)(4,7-diphenyl-1,10-phenanthroline)-Cl2]], the IC50 was 207 ± 4 nM in the data set on A549 cells [1] (setting [10]); 207 ± 4 nM with A549 cells [1] (setting [11]); 1350 ± 228 nM in the data set on MRC-5 (setting [12]); 1350 ± 228 nM with MRC-5 (setting [13]); 2840 ± 381 nM in data set [4]; 274 ± 6 nM in the data set on U2OS (setting [14]). Also, the IC50 in the data set with U2OS (setting [15]) came to 274 ± 6 nM; in [5] (setting [16]), 445 ± 4 nM; in [5] (setting [17]), 445 nM; in data set [7], 85 ± 11 nM; in [9] it was 475 ± 161 nM; with NTERA-2, 230 ± 28 nM. Moreover, in the data set on A549 cells [1] (ratio to cisplatin, Example 1), the “higher toxicity for lung carcinoma A549 cells than cisplatin” value amounted to 37 fold. In addition, the “markers of DNA damage, phosphorylated H2AX (γH2AX) and CHK2” value with A549 cells [2] is reported as “did not up-regulate”. The “cleaved caspases 7 and 9” value in the data set on A549 cells [2] is “not detected”. Further, the “FADD and cleaved caspase 8 expression” value in the data set with A549 cells [2] is given as “remained unaltered”. In addition, in the data set with A549 cells [2], the “overall expression level of RIP1 and RIP3” value is given as “remained unchanged”. Also, the “selectivity over normal fibroblast cells (IC50 higher in normal fibroblasts than in cancer cells)” value in the data set on MRC-5 was “about 10 fold”. Also, the “effect of co-treatment with IM-54 on toxicity” value with A549 cells [3] is recorded as “did not significantly affect the toxicity”. The “effect of co-incubation with necrostatin-1 on toxicity, A549” value in the data set on A549 cells [3] is recorded as “markedly decreased the toxicity”. Moreover, the “log P” value in [6] was found to be 1.20. Further, in data set [7], the “IC50 lower in HT-29 cells than IC50 of cisplatin” value was 300 fold. Besides, in [8], the “IC50 in MEFs PARP-1+/+ compared with MEFs PARP-1−/−” value is given as “similar”.

For the compound `C[O][Re-2]1(=[O])([Cl])([Cl])[n+]2cc(C)c(C)c3ccc4c(C)c(C)c[n+]1c4c32` [Compound 2, [ReO(OMe)(3,4,7,8-tetramethyl-1,10-phenanthroline)Cl2]], the IC50 in the data set with A549 cells [1] (setting [10]) came out at 157 ± 15 nM; in the data set on A549 cells [1] (setting [11]), 73 ± 3 nM; in the data set on MRC-5 (setting [12]) it was 709 ± 76 nM; with MRC-5 (setting [13]), 709 ± 76 nM; in data set [4], 1370 ± 84 nM; in the data set on U2OS (setting [14]), 209 ± 31 nM. For the same compound, the IC50 turned out to be 209 ± 31 nM in the data set with U2OS (setting [15]); 695 ± 21 nM in data set [5] (setting [16]); 695 ± 21 nM in data set [5] (setting [17]); 95 ± 20 nM in data set [7]; 1740 ± 275 nM in data set [9]; 255 ± 35 nM in the data set with NTERA-2. Further, the “markers of DNA damage, phosphorylated H2AX (γH2AX) and CHK2” value in the data set with A549 cells [2] is reported as “did not up-regulate”. Also, in the data set with A549 cells [2], the “cleaved caspases 7 and 9” value is “not detected”. Besides, the “FADD and cleaved caspase 8 expression” value with A549 cells [2] is “remained unaltered”. The “overall expression level of RIP1 and RIP3” value in the data set on A549 cells [2] is “remained unchanged”. Besides, in the data set with MRC-5, the “selectivity over normal fibroblast cells (IC50 higher in normal fibroblasts than in cancer cells)” value is on record as “about 10 fold”. Besides, in the data set with A549 cells [3], the “effect of co-treatment with IM-54 on toxicity” value is recorded as “did not significantly affect the toxicity”. Further, in the data set with A549 cells [3], the “effect of co-incubation with necrostatin-1 on toxicity, A549” value is given as “markedly decreased the toxicity”. In addition, the “log P” value in [6] is recorded as 0.95. Also, in [7], the “IC50 lower in HT-29 cells than IC50 of cisplatin” value amounted to 300 fold. Besides, in [8], the “IC50 in MEFs PARP-1+/+ compared with MEFs PARP-1−/−” value was “similar”.
